Assay results reported in US6723754B2, “Use of COMT inhibitors as analgesics” (Orion Corporation, priority 2000, dated 2004).
Marks after values point to notes of the source that are not given here.

Tests used:
[1] = tested on: acetic acid induced writhing in mice; assay: Acetic acid-induced writhing in mice; type: in vivo; conditions: mouse
Procedure: (§1) There are several methods for testing analgesic drugs experimentally. […] The inflammation is induced in the rat hind paw by yeast suspension and the pain threshold of the paw is measured. […] In these tests, both the NSAIDs and opioid analgesics are known to be effective. The hot plate test in mice is a test in which only opioid analgesics are effective.
Acetic acid induced writhing test is a widely used screening method for analgesic agents. […] Writing movements were elicited in mice by an i.p. injection of 1% acetic acid in the volume of 0.1 ml/10 g. The mice were placed in individual glass containers for observation. The number of writhes was counted during a period of 20 minutes and recorded every 5 minutes. The test compounds were given 5-60 minutes before the acetic acid.

[2] = tested on: inflamed paw in rats; assay: Modified Randall-Selitto test (yeast-inflamed hind paw pain threshold); type: in vivo; conditions: rat, one hour before measurement, % of control value
Procedure: as §1
The effect on inflammatory pain was measured using a modified Randall-Selitto test. 0.1 ml of 20% Brewer's yeast suspension was injected subplantary to the right hind paw of rats under ether anaesthesia to elicit inflammation in the paw. After 3 hours the degree of hyperalgesia was determined with an analgesy-meter by applying a force of increasing magnitude to the inflamed paw with a cone-shaped teflon pusher. The force at which the animals begins to struggle was assumed to represent the pain threshold. The drugs were administered orally 5 ml/kg one hour before the measurement. The increase in pain threshold was calculated as a percentage of the control value.

[3] = tested on: formation of prostaglandins; conditions: Aho and Linden, Scand.J.Gastroenterol. 1992; cited from earlier work

Structure (SMILES)	Inhibition of writhing (%) ([1]; 50 mg/kg p.o.)	Inhibition of writhing (%) ([1]; 100 mg/kg p.o.)	Increase in pain threshold (%) ([2]; 1 mg/kg p.o.)	Increase in pain threshold (%) ([2]; 3 mg/kg p.o.)	Increase in pain threshold (%) ([2]; 30 mg/kg p.o.)	Increase in pain threshold (%) ([2]; 10 mg/kg p.o.)	Inhibition of writhing (%) ([1]; 3 mg/kg i.v.)	Inhibition of writhing (%) ([1]; 10 mg/kg i.v.)	Inhibition of writhing (%) ([1]; 1 mg/kg i.p.)	Inhibition of writhing (%) ([1]; 2 mg/kg p.o.)	Inhibition of writhing (%) ([1]; 6 mg/kg p.o.)	Effect on formation of prostaglandins [3]	Inhibition of writhing (%) ([1]; 30 mg/kg i.p.)	Inhibition of writhing (%) ([1]; 100 mg/kg i.p.)	Increase in pain threshold (%) ([2]; 0.5 mg/kg p.o.)
O=[N+]([O-])c1cc(O)c(O)c([N+](=O)[O-])c1 [3,5-dinitrocatechol]	36** %	22** %	49* %	49* %	65* %										
CC(=O)c1cc(O)c(O)c([N+](=O)[O-])c1 [3′,4′-dihydroxy-5′-nitroacetophenone]	28** %	43** %		45%	62* %	68** %									
CCN(CC)C(=O)/C(C#N)=C/c1cc(O)c(O)c([N+](=O)[O-])c1 [Entacapone, (E)-2-cyano-3-(3,4-dihydroxy-5-nitrophenyl)-N,N-diethyl-2-propenamide]		24%			64%	62%	14	38* %							
COc1ccc2c(c1)c(CC(=O)O)c(C)n2C(=O)c1ccc(Cl)cc1 [Indomethacin, indomethacin]			54* %						38* %	18* %	42** %				
CC(=O)C(=Cc1cc(O)c(O)c([N+](=O)[O-])c1)C(C)=O [Nitecapone, 3-(3,4-dihydroxy-5-nitrophenyl)methylene-2,4-pentanedione]	15* %	21** %	58* %	46* %		45* %						stimulate the formation of prostaglandins	37* %	76* %	13
